Laboratory results: ChEMBL document CHEMBL1201862, “PubChem BioAssay data set” (2004)
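All cell lines were grown in 96-well plates and treated with compound for 48 hours. At the GI50, growth is halved.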 Activity calls are given as the source filed them. No stated cut-off is given here; in the data, active = GI50 up to about 1.1 µM and inactive = higher.

Assays:
Test in all cases: NCI anticancer screen, dose series, 48 h
[1] = test system: SF-268
[2] = test system: SF-295
[3] = test system: NCI-H23
[4] = test system: UACC-62
[5] = test system: Malme-3M
[6] = test system: MDA-MB-231
[7] = test system: NCI-H522
[8] = test system: MCF7
[9] = test system: OVCAR-3
[10] = test system: OVCAR-4
[11] = test system: SNB-75
[12] = test system: T47D
[13] = test system: M14
[14] = test system: HT-29
[15] = test system: HCT-116
[16] = test system: SF-539
[17] = test system: U-251
[18] = test system: SK-MEL-5
[19] = test system: PC-3
[20] = test system: SK-OV-3

Row | SMILES | GI50 [1] | GI50 [2] | GI50 [3] | GI50 [4] | GI50 [5] | GI50 [6] | GI50 [7] | GI50 [8] | GI50 [9] | GI50 [10] | GI50 [11] | GI50 [12] | GI50 [13] | GI50 [14] | GI50 [15] | GI50 [16] | GI50 [17] | GI50 [18] | GI50 [19] | GI50 [20]
1 | Cc1cc2c(nn1)CCc1c-2no[n+]1[O-] | > 100 µM (inactive) | > 100 µM (inactive) | > 100 µM (inactive) | > 100 µM (inactive) | > 100 µM (inactive) | > 100 µM (inactive) | > 100 µM (inactive) | > 100 µM (inactive) | > 100 µM (inactive) | > 100 µM (inactive) | > 100 µM (inactive) | > 100 µM (inactive) | > 100 µM (inactive) | > 100 µM (inactive) | > 100 µM (inactive) | > 100 µM (inactive) | > 100 µM (inactive) | > 100 µM (inactive) | > 100 µM (inactive) | > 100 µM (inactive)
2 | N#C[C@H](c1nc2ccccc2s1)c1nc2ccccc2nc1Cl |  | 17.1 µM (inactive) | 15.3 µM (inactive) | 14.3 µM (inactive) | > 100 µM (inactive) | > 100 µM (inactive) | 57.3 µM (inactive) | 5.56 µM (inactive) | 17.2 µM (inactive) | 16.3 µM (inactive) | > 100 µM (inactive) | > 100 µM (inactive) | 15.7 µM (inactive) | > 100 µM (inactive) | > 100 µM (inactive) | 37 µM (inactive) | > 100 µM (inactive) | > 100 µM (inactive) | 31 µM (inactive) | 23.6 µM (inactive)
3 | CC12CC3OC(=O)C1COC14OC5(C2C1=O)C(O)(CCC1C4CC2OC24CC=CC(=O)C14C)C(=O)OC35C (stereo unspecified) | 36.7 µM (inactive) | 24.8 µM (inactive) | 15.4 µM (inactive) | 13.2 µM (inactive) | 18.5 µM (inactive) | 18.5 µM (inactive) | 5.6 µM (inactive) | 8.85 µM (inactive) | 13.9 µM (inactive) | 66.2 µM (inactive) | 76.7 µM (inactive) | 15.7 µM (inactive) | 17.2 µM (inactive) | 28.5 µM (inactive) | 11.6 µM (inactive) | 12.6 µM (inactive) | 14.5 µM (inactive) | 3.88 µM (inactive) | 20.3 µM (inactive) | 28.6 µM (inactive)
4 | CC(C)C(/C=C/c1ccc(Cl)cc1)=N\NC(=S)NN | 7.57 µM (inactive) | 22.1 µM (inactive) | 20 µM (inactive) | 4.51 µM (inactive) | 25.2 µM (inactive) | > 100 µM (inactive) | 6.58 µM (inactive) | 15.6 µM (inactive) | 20.1 µM (inactive) |  | 22.9 µM (inactive) | 6.59 µM (inactive) | 18.9 µM (inactive) | 23.3 µM (inactive) | 2.99 µM (inactive) | 25.1 µM (inactive) | 6.61 µM (inactive) | 33 µM (inactive) | 36.5 µM (inactive) | 33.7 µM (inactive)
5 | CC(C)NC(=O)OCc1c(COC(=O)NC(C)C)c(-c2ccc[n+](COC(=O)C(C)(C)C)c2)n2c1CCC2 | 57.7 µM (inactive) | 65 µM (inactive) | 53.1 µM (inactive) | 35.5 µM (inactive) | > 100 µM (inactive) | > 100 µM (inactive) | 35 µM (inactive) | 57.5 µM (inactive) | > 100 µM (inactive) | > 79.3 µM (inactive) | > 89.1 µM (inactive) | > 100 µM (inactive) | > 84.1 µM (inactive) | > 100 µM (inactive) | > 91.6 µM (inactive) | 43.4 µM (inactive) | > 76.9 µM (inactive) | > 95.5 µM (inactive) | > 86.7 µM (inactive) | > 74.1 µM (inactive)
6 | COc1ccc(/C(C)=N/OC(=O)c2c(-c3ccccc3Cl)noc2C)cc1CN1CCOCC1 | 30.8 µM (inactive) | 11.5 µM (inactive) | 32.6 µM (inactive) | 15 µM (inactive) | 21.2 µM (inactive) | 20 µM (inactive) | 17.8 µM (inactive) | 20.8 µM (inactive) | 21.7 µM (inactive) | 29.4 µM (inactive) | 28.4 µM (inactive) | 16.4 µM (inactive) | 14 µM (inactive) | 18.3 µM (inactive) | 18.2 µM (inactive) | 24.8 µM (inactive) | 25.4 µM (inactive) | 17.3 µM (inactive) | 24.2 µM (inactive) | 29.4 µM (inactive)
7 | O=C(/C=C/c1ccc2c(c1)OCO2)CC(=O)C(=O)c1c[nH]c2ccccc12 | 37.2 µM (inactive) | 61.8 µM (inactive) | 34.2 µM (inactive) | 44.2 µM (inactive) | > 100 µM (inactive) | 39.4 µM (inactive) | 68.5 µM (inactive) | 32.2 µM (inactive) | 32 µM (inactive) |  | 29.3 µM (inactive) | 29.4 µM (inactive) | 63.2 µM (inactive) | 36.3 µM (inactive) | 31.8 µM (inactive) | 32.4 µM (inactive) | 30.8 µM (inactive) | 58.3 µM (inactive) | 37 µM (inactive) | 35.2 µM (inactive)
8 | Cc1ccc([N+](=O)[O-])cc1S(=O)(=O)Nc1ccc(C2=NNC(c3ccccc3O)C2)cc1 (stereo unspecified) | 32.1 µM (inactive) | 31.7 µM (inactive) | 20.6 µM (inactive) | 17.6 µM (inactive) | 25.9 µM (inactive) | 26.7 µM (inactive) | 23.3 µM (inactive) | 23.1 µM (inactive) | 13.5 µM (inactive) | 19.8 µM (inactive) | 33.2 µM (inactive) | 17.3 µM (inactive) | 20.7 µM (inactive) | 28.8 µM (inactive) | 21.9 µM (inactive) | 40.8 µM (inactive) |  | 19.2 µM (inactive) | 29.4 µM (inactive) | 25.1 µM (inactive)
9 | COC(=O)[C@@H]1C=CCN1S(=O)(=O)c1ccc(C)cc1 | > 100 µM (inactive) | > 100 µM (inactive) | > 100 µM (inactive) | 38 µM (inactive) | 71.6 µM (inactive) | > 100 µM (inactive) | 98.4 µM (inactive) | > 100 µM (inactive) | 50.8 µM (inactive) | > 100 µM (inactive) | > 100 µM (inactive) | > 100 µM (inactive) | 48.1 µM (inactive) | > 100 µM (inactive) | 34.2 µM (inactive) | 60.1 µM (inactive) | 31.1 µM (inactive) | 59.6 µM (inactive) | > 100 µM (inactive) | > 100 µM (inactive)
10 | C=C1C(=O)O[C@H]2C/C(C)=C/CC/C(C)=C/CC[C@@](C)(O)[C@@H](I)C[C@@H]12 | 14 µM (inactive) | 18.4 µM (inactive) | 0.0501 µM (active) | 11.3 µM (inactive) | 4.49 µM (inactive) | 12.8 µM (inactive) | 2.64 µM (inactive) | 5.57 µM (inactive) | 12.3 µM (inactive) | 4.94 µM (inactive) | 11 µM (inactive) | 11.7 µM (inactive) | 9.64 µM (inactive) | 6.52 µM (inactive) | 4.14 µM (inactive) | 4 µM (inactive) | 13.6 µM (inactive) | 11.8 µM (inactive) | 8.26 µM (inactive) | 16 µM (inactive)
11 | COc1ccc(OC)c2c1C[C@@H]1C(C#N)N3[C@H](Cc4c(OC)ccc(OC)c4[C@@H]3C)C(=O)N1[C@H]2C (stereo partly specified) | 2.15 µM (inactive) | 14.9 µM (inactive) | 4.5 µM (inactive) | 2.36 µM (inactive) | 2.87 µM (inactive) | 2.08 µM (inactive) | 1.68 µM (inactive) | 3.91 µM (inactive) | 2.07 µM (inactive) | 3.23 µM (inactive) | 1.08 µM (active) | 3.11 µM (inactive) | 2.67 µM (inactive) | 8.05 µM (inactive) | 3.83 µM (inactive) | 2.5 µM (inactive) | 2.26 µM (inactive) | 1.75 µM (inactive) | 3.18 µM (inactive) | 11.9 µM (inactive)
12 | O=C(CCCNc1nc(-c2ccccc2)cs1)c1cccs1 | > 100 µM (inactive) | > 100 µM (inactive) | > 100 µM (inactive) | > 100 µM (inactive) | > 100 µM (inactive) | > 100 µM (inactive) | > 100 µM (inactive) | > 100 µM (inactive) | > 100 µM (inactive) | > 100 µM (inactive) | > 100 µM (inactive) | > 100 µM (inactive) | > 100 µM (inactive) | > 100 µM (inactive) | > 100 µM (inactive) | > 100 µM (inactive) | > 100 µM (inactive) | > 100 µM (inactive) | > 100 µM (inactive) | > 100 µM (inactive)
13 | Clc1ccc(Cc2nc3cc(CCN4CCN(c5ccccc5)CC4)ccc3[nH]2)cc1 | 25.5 µM (inactive) | 12.3 µM (inactive) | 13.8 µM (inactive) | 16 µM (inactive) | 15.7 µM (inactive) | 13 µM (inactive) | 14.1 µM (inactive) | 16 µM (inactive) | 13 µM (inactive) | 10.3 µM (inactive) | 12.8 µM (inactive) | 7.01 µM (inactive) | 5.73 µM (inactive) | 5.58 µM (inactive) | 12 µM (inactive) | 17.3 µM (inactive) | 13 µM (inactive) | 12.6 µM (inactive) | 18.6 µM (inactive) | 17.9 µM (inactive)
14 | CNc1ccc(-c2nc3cc(C)ccc3o2)cc1 | 42.7 µM (inactive) | 28.9 µM (inactive) | > 100 µM (inactive) | 68.5 µM (inactive) | > 100 µM (inactive) | 40.1 µM (inactive) | 88.1 µM (inactive) | > 100 µM (inactive) | > 100 µM (inactive) | > 100 µM (inactive) | 14.7 µM (inactive) | 13.8 µM (inactive) | > 100 µM (inactive) | > 100 µM (inactive) | > 100 µM (inactive) | 49.5 µM (inactive) | 58.6 µM (inactive) | > 100 µM (inactive) | > 100 µM (inactive) | 18.2 µM (inactive)
